Legend:
Type in all cases: in vivo
Scirpus juncoides [1] = test: Test Example 11: herbicidal effect test by soil treatment in paddy field; settings: 120 g/10a active ingredient, 14 days after treatment
In short: (§1)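 Dry weight at day 14 relative to untreated controls gives the suppression rate; duplicate pots. Treatment: 120 g a.i./10 are into paddy water at sowing.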

Echinochloa crus-galli [2] = test: as above; settings: 120 g/10a active ingredient, 14 days after treatment
In short: as §1

Monochoria vaginalis [3] = test: as above; settings: 120 g/10a active ingredient, 14 days after treatment
In short: as §1

Lindernia pyxidaria [4] = test: as above; settings: 120 g/10a active ingredient, 14 days after treatment
In short: as §1

Chenopodium album [5] = test: Test Example 14: herbicidal effect test by foliage treatment in upland field; settings: 7 days after sowing, 120 g/10a, 14 days after treatment
In short: (§2)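 Post-sowing spray at day 7, 120 g a.i./10 are in 100 L water/10 are; alluvial soil pots, duplicate plots; endpoint day 14, % suppression from dry weight relative to untreated.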

crabgrass [6] = test: as above; settings: 7 days after sowing, 120 g/10a, 14 days after treatment
In short: as §2

Amaranthus viridis [7] = test: Test Example 13: herbicidal effect test by soil treatment in upland field; settings: 120 g/10a, 14 days after treatment
In short: (§3)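 Soil-applied emulsifiable concentrate at 120 g active ingredient per 10 are, sprayed one day after seeding into alluvial soil pots. Dry-weight-based suppression scored at 14 days; two replications.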

Echinochloa crus-galli [8] = test: as above; settings: 120 g/10a, 14 days after treatment
In short: as §3

Chenopodium album [9] = test: as above; settings: 120 g/10a, 14 days after treatment
In short: as §3

crabgrass [10] = test: as above; settings: 120 g/10a, 14 days after treatment
In short: as §3

Amaranthus viridis [11] = test: Test Example 14: herbicidal effect test by foliage treatment in upland field; settings: 7 days after sowing, 120 g/10a, 14 days after treatment
In short: as §2

Echinochloa crus-galli [12] = test: as above; settings: 7 days after sowing, 120 g/10a, 14 days after treatment
In short: as §2

Scirpus juncoides [13] = test: Test Example 12: herbicidal effect test by treatment during growing period in paddy field; settings: 120 g/10a; treatment seven days after sowing in flooded paddy pot; assessed 14 days after treatment
In short: (§4)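 Seeds (30 per species) are sown shallowly into fertilized, puddled paddy soil kept under ~3 cm of water in a greenhouse. One week later, compound formulated as an emulsifiable concentrate is applied dropwise to the water at 120 g a.i./10 are. After 14 days, dry weights give percent suppression against untreated controls.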

Echinochloa crus-galli [14] = test: as above; settings: 120 g/10a; treatment seven days after sowing in flooded paddy pot; assessed 14 days after treatment
In short: as §4

Monochoria vaginalis [15] = test: as above; settings: 120 g/10a; treatment seven days after sowing in flooded paddy pot; assessed 14 days after treatment
In short: as §4

Lindernia pyxidaria [16] = test: as above; settings: 120 g/10a; treatment seven days after sowing in flooded paddy pot; assessed 14 days after treatment
In short: as §4

Row | SMILES | Weed suppression rate (%) Scirpus juncoides (Scirpus juncoides [1]) [%] | Weed suppression rate (%) Echinochloa crus-galli (Echinochloa crus-galli [2]) [%] | Weed suppression rate (%) Monochoria vaginalis (Monochoria vaginalis [3]) [%] | Weed suppression rate (%) Lindemia pyxidaria (Lindernia pyxidaria [4]) [%] | herbicidal effect, Chenopodium album (Chenopodium album [5]) [%] | herbicidal effect, Crabgrass (crabgrass [6]) [%] | herbicidal effect, Amaranthus viridis (Amaranthus viridis [7]) [%] | herbicidal effect, Echinochloa crus-galli (Echinochloa crus-galli [8]) [%] | herbicidal effect, Chenopodium album (Chenopodium album [9]) [%] | herbicidal effect, Crabgrass (crabgrass [10]) [%] | herbicidal effect, Amaranthus viridis (Amaranthus viridis [11]) [%] | herbicidal effect, Echinochloa crus-galli (Echinochloa crus-galli [12]) [%] | Weed suppression rate (%) Scirpus juncoides (Scirpus juncoides [13]) [%] | Weed suppression rate (%) Echinochloa crus-galli (Echinochloa crus-galli [14]) [%] | Weed suppression rate (%) Monochoria vaginalis (Monochoria vaginalis [15]) [%] | Weed suppression rate (%) Lindemia pyxidaria (Lindernia pyxidaria [16]) [%]
1 | CC(C)N(C(=O)n1cnn(S(=O)(=O)c2cccs2)c1=O)c1ccc(F)cc1F [Compound 11-1022] | 100 | 100 | 90 | 100 | 40 | 70 | 70 | 100 | 100 | 100 | 0 | 90 | 90 | 90 | 90 | 90
2 | Cc1ccc(N(C(=O)n2cnn(S(C)(=O)=O)c2=O)C(C)C)c(F)c1 [Compound 11-26] | 90 | 90 | 80 | 80 | 80 | 90 | 90 | 80 | 80 | 90 | 90 | 80 | 90 | 90 | 80 | 80
3 | CC(C)N(C(=O)n1cnn(S(=O)(=O)c2ccc(F)cc2)c1=O)c1ccc(F)cc1Cl [Compound 11-482] | 90 | 90 | 80 | 80 | 80 | 90 | 90 | 80 | 80 | 90 | 90 | 80 | 90 | 90 | 80 | 80
4 | CCN(C)S(=O)(=O)n1ncn(C(=O)N(c2ccc(F)cc2F)C(C)C)c1=O [Compound 11-1098] | 100 | 100 | 80 | 100 | 80 | 90 | 90 | 100 | 100 | 100 | 90 | 80 | 70 | 100 | 80 | 70
5 | CC(C)N(C(=O)n1cnn(S(=O)(=O)c2cccc(F)c2)c1=O)c1ccccc1 [Compound 11-427] | 60 | 100 | 60 | 80 | 60 | 90 | 40 | 70 | 60 | 90 | 40 | 40 | 90 | 90 | 90 | 90
